Results reported in US12662491B2 (Redona Therapeutics, Inc., priority 2020, dated 2026).
Where two headings read alike, the source gives them in different places.

Target: T1, Zcchc11 enzyme (Homo sapiens, UniProt Q5TAX3)
T1 construct: made in house; host or cells: HEK293 cells (Zcchc11); E. coli Rosetta II (LIN28A)
T1 sequence (Q5TAX3 212-1420): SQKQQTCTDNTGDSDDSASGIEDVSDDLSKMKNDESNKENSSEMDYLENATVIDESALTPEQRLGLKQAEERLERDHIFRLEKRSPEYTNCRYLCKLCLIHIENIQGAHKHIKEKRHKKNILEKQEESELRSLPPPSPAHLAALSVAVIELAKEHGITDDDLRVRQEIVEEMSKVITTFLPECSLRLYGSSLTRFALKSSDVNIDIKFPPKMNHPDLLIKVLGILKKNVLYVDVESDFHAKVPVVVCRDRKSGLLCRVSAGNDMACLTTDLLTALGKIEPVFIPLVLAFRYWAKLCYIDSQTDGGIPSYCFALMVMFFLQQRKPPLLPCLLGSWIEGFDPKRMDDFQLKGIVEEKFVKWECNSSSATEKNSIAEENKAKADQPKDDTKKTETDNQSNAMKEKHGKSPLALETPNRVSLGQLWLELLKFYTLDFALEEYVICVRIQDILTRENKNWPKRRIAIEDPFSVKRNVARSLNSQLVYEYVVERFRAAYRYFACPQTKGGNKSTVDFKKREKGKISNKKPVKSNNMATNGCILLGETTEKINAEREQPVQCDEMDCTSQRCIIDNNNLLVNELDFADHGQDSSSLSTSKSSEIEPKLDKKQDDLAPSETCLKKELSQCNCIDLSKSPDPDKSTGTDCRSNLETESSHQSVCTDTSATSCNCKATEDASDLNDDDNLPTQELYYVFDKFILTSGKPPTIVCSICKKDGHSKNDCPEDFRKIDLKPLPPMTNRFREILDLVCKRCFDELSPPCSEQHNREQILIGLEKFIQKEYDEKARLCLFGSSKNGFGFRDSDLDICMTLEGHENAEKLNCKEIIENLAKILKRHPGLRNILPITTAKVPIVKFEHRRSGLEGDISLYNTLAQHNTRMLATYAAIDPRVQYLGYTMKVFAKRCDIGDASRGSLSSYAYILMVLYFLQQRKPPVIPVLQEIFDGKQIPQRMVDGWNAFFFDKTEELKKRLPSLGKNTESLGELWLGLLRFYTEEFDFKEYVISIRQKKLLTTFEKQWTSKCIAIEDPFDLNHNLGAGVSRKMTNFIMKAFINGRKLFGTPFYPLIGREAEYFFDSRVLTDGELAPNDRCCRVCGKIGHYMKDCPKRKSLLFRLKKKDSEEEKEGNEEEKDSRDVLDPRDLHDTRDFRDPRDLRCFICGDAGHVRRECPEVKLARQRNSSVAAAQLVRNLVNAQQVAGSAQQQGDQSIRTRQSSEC
Experiment: TUTase assay (Zcchc11 assay, Lin28a-dependent polyuridylation of pre-let-7)
Assay type: biochemical
Conditions: read-out: Potency Lin28a-dep Z11 IC50
Protocol: The purpose of the Zcchc11 assay is to determine compound potency against Zcchc11 enzyme through the measurement of IC50. Compound inhibition is measured as a function of polyuridine tails added to RNA substrates in the presence of active TUTase, UTP, and inhibitor. The Zcchc11 assay was done in a black, non-binding, 384 well plate (Corning #3575). All steps were performed at room temperature. For a typical assay, a 29 ul aliquot of assay buffer (50 mM HEPES pH 7.3, 150 mM KCl, 5 mM MgCl2, 10 mM DTT, 0.01% Triton X-100, 40 U/ml RNAsin (Promega)) containing LIN28A protein (final concentration: 10 nM) is added to each well. Next, 1 ul of compound in 100% DMSO is transferred from a compound dilution plate in which the compound is serially diluted. Next, 10 ul of a 5× mix of Zcchc11 and RNA substrate (5′-fluorescein labeled pre-let-7 miRNA (Dharmacon)) is added (final concentrations: 0.2 nM and 2 nM, respectively). The plate is placed on a plate shaker for 30 seconds to produce mixing, then incubated for 30 minutes. Next, 10 ul of a 5× mix of UTP and the quenching probe (3′-rhodamine labeled A20, polyadenosine nucleotide, (IDT)) is added (final concentrations: 5 uM and 4 nM, respectively). The plate is immediately placed in a Biotek Cytation 5 plate reader, and the time-dependent decrease in fluorescein fluorescence resulting from annealing of the A20 probe to polyuridine tails is recorded, using the kinetics mode of the reader. Reaction rates are obtained using linear fits to the early portion of progress curves. IC50 values are calculated using a four parameter fit with 100% enzyme activity determined from the DMSO control and 0% activity from control samples lacking UTP.
The LIN28A protein was expressed in and purified from E. coli, strain Rosetta II (Novagen). The entire coding sequence of the human, wild-type protein was cloned into expression vector pMAL (NEB), down-stream from a maltose-binding protein tag. The linker sequence contained a TEV protease cleavage site. The protein was purified from bacterial extracts using an MBP-Trap column (GE Healthcare Life Sciences), followed by tag cleavage and removal of the tag by ion-exchange chromatography. When necessary, contaminating bacterial RNA was removed using the procedure describe by Faehnle C R. et al. (2017) Multi-domain utilization by TUT4 and TUT7 in control of let-7 biogenesis. Nat Struct Mol Biol, 24:658-665.
The Zcchc11 protein was expressed in and purified from HEK293 cells. A truncated protein comprising residues 212-1420 of the human sequence was cloned into expression vector pTT5 (Viva Biotech) down-stream from a maltose-binding protein tag. The linker sequence contained a TEV protease cleavage site, and a FLAG tag was added to the carboxyl terminus of the protein. The protein was purified from cell extracts using an MBP-Trap column (GE Healthcare Life Sciences), followed by tag cleavage and further enrichment of the full length construct using anti-FLAG affinity media (Sigma Aldrich).
“+” represents an IC50 value that is greater than 50 μM; “++” represents an IC50 value that is greater than 10 μM and equal to or less than 50 μM; “+++” represents an IC50 value that is greater than 1 μM and equal to or less than 10 μM; and “++++” represents an IC50 value that is equal to or less than 1 μM.

[1] = Lin28a-dependent Zcchc11 (Z11) TUTase assay
[2] = LIN28A 10 nM, Zcchc11 0.2 nM, 5′-fluorescein pre-let-7 miRNA 2 nM, UTP 5 uM, room temperature, 30 minutes pre-incubation
[3] = Lin28a-dependent Zcchc11 (Z11) TUTase activity

Row | Structure (SMILES) | IC50 [1] [nM] | IC50 [3] [nM] | further results
1 | CN(C)C1CN(c2ccc(-n3cc(C(=O)O)c(=O)c4cc(C#N)c(N5CCC[C@]5(C)COc5ncccc5F)cc43)cn2)C1 [Example 687, (R)-6-cyano-1-(6-(3-(dimethylamino)azetidin-1-yl)pyridin-3-yl)-7-(2-(((3-fluoropyridin-2-yl)oxy)methyl)-2-methylpyrrolidin-1-yl)-4-oxo-1,4-dihydroquinoline-3-carboxylic acid] | ≤ 1000 |  | 
2 | COCC1CC(n2cc(C(=O)O)c(=O)c3cc(F)c(N4CCC[C@@H]4COc4ccccn4)cc32)C1 (stereo partly drawn) [Example 25, 6-fluoro-1-[3-(methoxymethyl)cyclobutyl]-4-oxo-7-[(2R)-2-[(pyridin-2-yloxy)methyl]pyrrolidin-1-yl]-1,4-dihydroquinoline-3-carboxylic acid] |  |  | IC50 [2]: 10000 to 50000 nM
3 | COc1c(N2CCC[C@@H]2COc2ccccn2)c(F)cc2c(=O)c(C(=O)O)cn(C3CC3)c12 [Example 3, (R)-1-cyclopropyl-6-fluoro-8-methoxy-4-oxo-7-(2-((pyridin-2-yloxy)methyl)pyrrolidin-1-yl)-1,4-dihydroquinoline-3-carboxylic acid] |  |  | IC50 [2]: > 50000 nM
4 | COc1ccc(Cl)c(OCC2N(c3cc4c(cc3Cl)c(=O)c(C(=O)O)cn4-c3cnnc(N)c3)CCC2(C)C)n1 (centres unmarked) [Compound 228, 1-(6-Amino-pyridazin-4-yl)-6-chloro-7-(2-(((3-chloro-6-methoxy-pyridin-2-yl)oxy)methyl)-3,3-dimethyl-pyrrolidin-1-yl)-4-oxo-1,4-dihydro-quinoline-3-carboxylic acid] |  | ≤ 1000 | 
5 | O=C(O)c1cn(-c2cn[nH]c2)c2cc(N3CCC[C@@H]3COc3ncccc3Cl)c(Cl)cc2c1=O [Example 434, (R)-6-chloro-7-(2-(((3-chloropyridin-2-yl)oxy)methyl)pyrrolidin-1-yl)-4-oxo-1-(1H-pyrazol-4-yl)-1,4-dihydroquinoline-3-carboxylic acid] | 1000 to 10000 |  | 
6 | CN(C)C1CN(c2ccc(-n3cc(C(=O)O)c(=O)c4cc(Cl)c(N5CCC6CC65COc5ncccc5Cl)cc43)cn2)C1 (centres unmarked) [Example 48, 6-chloro-7-(1-[[(3-chloropyridin-2-yl)oxy]methyl]-2-azabicyclo[3.1.0]hexan-2-yl)-1-[6-[3-(dimethylamino)azetidin-1-yl]pyridin-3-yl]-4-oxoquinoline-3-carboxylic acid] |  |  | IC50 [2]: ≤ 1000 nM
7 | CN(C)C1CN(c2cc(Cl)c(-n3cc(C(=O)O)c(=O)c4cc(Cl)c(N5CCC[C@@H]5COc5ncccc5Cl)cc43)cn2)C1 [Compound 253, 6-chloro-1-[4-chloro-6-[3-(dimethyl-amino)azetidin-1-yl]pyridin-3-yl]-7-[(2R)-2-[[(3-chloropyridin-2-yl)oxy]methyl]pyrrolidin-1-yl]-4-oxoquinoline-3-carboxylic acid] |  | ≤ 1000 | 
8 | O=C(O)c1cn(-c2ccc(O)cc2)c2c(F)c(N3CCC[C@@H]3COc3ccccn3)c(F)cc2c1=O [Compound 134, (R)-6,8-difluoro-1-(4-hydroxy-phenyl)-4-oxo-7-(2-((pyridin-2-yloxy)methyl)pyrrolidin-1-yl)-1,4-dihydro-quinoline-3-carboxylic acid] |  | ≤ 1000 | 
9 | CC1CCN(c2cc3c(cc2Cl)c(=O)c(C(=O)O)cn3-c2ccc(N3CC(N(C)C)C3)nc2)C1COc1ncccc1Cl (centres unmarked) [Compound 306, 6-chloro-7-(2-(((3-chloropyridin-2-yl)oxy)methyl)-3-methyl-pyrrolidin-1-yl)-1-(6-(3-(dimethyl-amino)azetidin-1-yl)pyridin-3-yl)-4-oxo-1,4-dihydro-quinoline-3-carboxylic acid] |  | ≤ 1000 | 
10 | CN(C)C1CN(c2ccc(-n3cc(C(=O)O)c(=O)c4cc(Cl)c(N5CCC[C@@H]5COc5ncccc5F)cc43)cn2)C1 [Example 526, (R)-6-chloro-1-(6-(3-(dimethylamino)azetidin-1-yl)pyridin-3-yl)-7-(2-(((3-fluoropyridin-2-yl)oxy)methyl)pyrrolidin-1-yl)-4-oxo-1,4-dihydroquinoline-3-carboxylic acid] | ≤ 1000 |  | 
11 | CN(C)C1CN(c2ccc(-n3cc(C(=O)O)c(=O)c4cc(Cl)c(N5CCC[C@@H]5COc5nccn6ccnc56)cc43)cn2)C1 [Compound 172, (R)-6-chloro-1-(6-(3-(dimethyl-amino)azetidin-1-yl)pyridin-3-yl)-7-(2-((imidazo [1,2-a]pyrazin-8-yloxy)methyl)pyrrolidin-1-yl)-4-oxo-1,4-dihydro-quinoline-3-carboxylic acid] |  | ≤ 1000 | 
12 | CN(C)CCn1cc(-n2cc(C(=O)O)c(=O)c3cc(Cl)c(N4CCC[C@@H]4COc4ncccc4Cl)cc32)cn1 [Example 437, (R)-6-chloro-7-(2-(((3-chloropyridin-2-yl)oxy)methyl)pyrrolidin-1-yl)-1-(1-(2-(dimethylamino)ethyl)-1H-pyrazol-4-yl)-4-oxo-1,4-dihydroquinoline-3-carboxylic acid] | ≤ 1000 |  | 
13 | COc1ccc(Cl)c(OCC23CC(CN2c2cc4c(cc2Cl)c(=O)c(C(=O)O)cn4-c2ccc(N4CC(N(C)C)C4)nc2)C3)n1 [Compound 258, 6-chloro-7-(1-(((3-chloro-6-methoxy-pyridin-2-yl)oxy)methyl)-2-azabicyclo [2.1.1]hexan-2-yl)-1-(6-(3-(dimethyl-amino)azetidin-1-yl)pyridin-3-yl)-4-oxo-1,4-dihydro-quinoline-3-carboxylic acid] |  | 1000 to 10000 | 
14 | CN1CC(c2ccc(-n3cc(C(=O)O)c(=O)c4cc(Cl)c(N5CCC[C@@H]5COc5ncccc5Cl)cc43)cn2)C1 [Example 626, (R)-6-chloro-7-(2-(((3-chloropyridin-2-yl)oxy)methyl)pyrrolidin-1-yl)-1-(6-(1-methyl-azetidin-3-yl)pyridin-3-yl)-4-oxo-1,4-dihydroquinoline-3-carboxylic acid] | ≤ 1000 |  | 
